Experimental data taken from patent publication US20230357179A1, “RAF KINASE INHIBITORS AND METHODS OF USE THEREOF” (Deciphera Pharmaceuticals, LLC, priority 2021, published 2023).

Key:
B-Raf kinase = molecular target: T1, B-Raf kinase (Homo sapiens, UniProt P15056); assay: Biochemical assay for B-Raf.1 (coupled pyruvate kinase/lactate dehydrogenase); settings: read-out: BRAF.1 IC50
T1 construct: GST (N); purchased Sigma
Outline: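 Reaction rates over the 4–5 h window of a continuous 6 h, 30 °C read were converted to percent inhibition and fitted for IC50. B-Raf (0.13 nM) phosphorylated 30.1 nM MEK with 1 mM ATP; ADP coupled via PK/LDH to NADH loss at 340 nm, 1% DMSO final.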

B-Raf (V600E) kinase = molecular target: T2, B-Raf (V600E) kinase (Homo sapiens, UniProt P15056, V600E); assay: Biochemical assay for B-Raf (V600E).1 (coupled pyruvate kinase/lactate dehydrogenase); settings: read-out: BRAF V600E.1 IC50
T2 construct: B-Raf (V600E) residues 416-766 with a; GST (N); purchased SignalChem
T2 sequence (P15056 416-766 V600E): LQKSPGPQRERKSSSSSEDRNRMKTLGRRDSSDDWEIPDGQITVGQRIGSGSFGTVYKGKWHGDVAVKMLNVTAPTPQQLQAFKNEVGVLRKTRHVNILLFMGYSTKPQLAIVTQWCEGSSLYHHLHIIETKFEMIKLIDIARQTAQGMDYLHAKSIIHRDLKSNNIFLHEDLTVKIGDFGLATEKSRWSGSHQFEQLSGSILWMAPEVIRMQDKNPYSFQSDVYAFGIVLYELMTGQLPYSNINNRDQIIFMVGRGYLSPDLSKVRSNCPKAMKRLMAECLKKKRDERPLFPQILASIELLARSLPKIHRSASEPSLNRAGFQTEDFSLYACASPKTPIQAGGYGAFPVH
Outline: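 IC50 came from four-parameter sigmoidal fits of percent inhibition, using reaction rates over 3-4 h. Continuous A340 reading (6 h, 30 °C) of a pyruvate kinase/lactate dehydrogenase-coupled reaction: B-Raf V600E 0.03 nM, MEK 30.1 nM, ATP 1 mM, Tris pH 7.5, 1% DMSO.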

WM3928 cells = assay: WM3928 cell proliferation assay (1), resazurin, 96-well; type: cell-based; settings: inhibition of cell proliferation
Method: WM3928 Cell Proliferation Assay (1)
WM3928 cells (#WM3928-01-0001) are obtained from Rockland Immunochemicals Inc (Gilbertsville, PA). Briefly, cells were grown in MCDB 153 medium (Sigma, #M7403, St. Louis, MO) supplemented with 20% Leibovitz's L-15 (ThermoFisher #11415-064, Waltham, MA), 2% heat inactivated fetal bovine serum (ThermoFisher, #A3840001, Waltham, MA), 5 μg/mL Insulin (Bovine Pancreas) (Sigma, #I0516, St. Louis, MO), 1.68 mM Calcium Chloride (Sigma, #C-34006, St. Louis, MO) and 1% Penicillin/Streptomycin/L-Glutamine (ThermoFisher #10378016, Waltham, MA) at 37° C., 5% CO2, and 95% humidity. Cells are expanded until reaching 70-95% confluency at which point they are subcultured or harvested for assay use. A serial dilution of test compound is dispensed into a 96-well black clear bottom plate in triplicate. Three thousand cells are added per well in 200 μL complete growth medium in the 96-well plate. Plates are incubated for 67-72 hours at 37° C., 5% CO2, and 95% humidity. At the end of the incubation, 40 μL of a 440 μM solution of resazurin (Sigma, #199303, St. Louis, MO) in PBS is added to each well of the plate and plates are incubated for an additional 6-7 hours at 37° C., 5% CO2, and 95% humidity. Plates are read on a Synergy2 or equivalent reader (Biotek, Winooski VT) using an excitation of 540 nm and an emission of 600 nm. Data is analyzed using Prism software (GraphPad, San Diego, CA) to calculate IC50 values.

Miapaca-2 cells = assay: MiaPaca-2 cell proliferation assay (1), resazurin, 96-well; type: cell-based; settings: Homo sapiens, MIA PaCa-2, inhibition of cell proliferation
Method: MiaPaca-2 Cell Proliferation Assay (1)
Miapaca-2 cells (catalog #CRL-1420) are obtained from the American Type Culture Collect (ATTC, Manassas, VA). Briefly, cells were grown in DMEM supplemented with 10% characterized fetal bovine serum (Invitrogen, Carlsbad, CA), 2.5% New Zealand sourced horse serum and 1% Penicillin/Streptomycin/L-Glutamine at 37° C., 5% CO2, and 95% humidity. Cells are expanded until reaching 70-95% confluency at which point they are subcultured or harvested for assay use. A serial dilution of test compound is dispensed into a 96-well black clear bottom plate in triplicate. Three thousand cells are added per well in 200 μL complete growth medium in the 96-well plate. Plates are incubated for 67-72 hours at 37° C., 5% CO2, and 95% humidity. At the end of the incubation, 40 μL of a 440 μM solution of resazurin (Sigma, St. Louis, MO) in PBS is added to each well of the plate and plates are incubated for an additional 5-6 hours at 37° C., 5% CO2, and 95% humidity. Plates are read on a Synergy2 or equivalent reader (Biotek, Winooski VT) using an excitation of 540 nm and an emission of 600 nm. Data is analyzed using Prism software (GraphPad, San Diego, CA) to calculate IC50 values.

T1 sequence (P15056 416-766): as the sequence (P15056 416-766 V600E) above, with E185V counted along it

IC50 (B-Raf kinase)	IC50 (B-Raf (V600E) kinase)	IC50 (Miapaca-2 cells)	SMILES	IC50 (WM3928 cells)
≤ 100 nM	≤ 100 nM	1000 to 10000 nM	Cc1cc(F)c(NC(=O)NCCC(C)C)cc1-c1cc(OCCO)nc(-c2ccnc(NC(=O)C3CC3)c2)c1 [Example 106]	≤ 100 nM
≤ 100 nM	≤ 100 nM	1000 to 10000 nM	COC(C)(C)CCNC(=O)Nc1cc(-c2ccnc(-c3ccnc(NC(=O)C4CC4)c3)n2)c(C)cc1F [Example 108]	100 to 500 nM
≤ 100 nM	≤ 100 nM	1000 to 10000 nM	Cc1ncc(NC(=O)NCCC2(C)CC2)cc1-c1cc(OCCO)nc(-c2ccnc3c2CC(=O)N3)c1 [Example 112]	1000 to 10000 nM
≤ 100 nM	≤ 100 nM		COC(=O)Nc1cc(-c2nc(OCCO)cc(-c3cc(NC(=O)NCCC(C)(C)F)c(F)cc3C)n2)ccn1 [Example 161]	≤ 100 nM
≤ 100 nM	≤ 100 nM	1000 to 10000 nM	Cc1ncc(NC(=O)NC[C@H](O)C(C)(C)C)cc1-c1ccnc(-c2ccnc(NC(=O)C3CC3)c2)c1 [Example 102]	1000 to 10000 nM
≤ 100 nM	≤ 100 nM	1000 to 10000 nM	Cc1cc(F)c(NC(=O)NCCC(C)(C)F)cc1-c1cc(OCCO)nc(-c2ccnc3[nH]ncc23)c1 [Example 94]	100 to 500 nM
≤ 100 nM	≤ 100 nM	1000 to 10000 nM	Cc1cc(F)c(NC(=O)NCCC(F)F)cc1-c1cc(OCCO)nc(-c2ccnc(NC(=O)C3CC3)c2)c1 [Example 105]	500 to 1000 nM
≤ 100 nM	≤ 100 nM	1000 to 10000 nM	Cc1cc(F)c(NC(=O)NCCC(C)(C)F)cc1-c1nccc(-c2ccnc(NC(=O)C3CC3)c2)n1 [Example 114]	500 to 1000 nM
≤ 100 nM	≤ 100 nM	1000 to 10000 nM	Cc1ncc(NC(=O)NC2CC(C)(C)C2)cc1-c1cc(OCCO)nc(-c2ccnc(NC(=O)C3CC3)c2)n1 [Example 144]	500 to 1000 nM
≤ 100 nM	≤ 100 nM	1000 to 10000 nM	COC(=O)Nc1cc(-c2cc(-c3cc(NC(=O)NCCC(C)(C)C)cnc3C)ccn2)ccn1 [Example 109]	100 to 500 nM
≤ 100 nM	≤ 100 nM		COC(=O)Nc1cc(-c2cccc(-c3cc(NC(=O)NCCC4(C)CC4)cnc3C)c2)ncn1 [Example 170]	100 to 500 nM
≤ 100 nM	≤ 100 nM	1000 to 10000 nM	Cc1ncc(NC(=O)NCCC2(C)CC2)cc1-c1cc(OCCO)nc(-c2ccnc(NC(=O)C3CC3)c2)c1 [Example 113]	≤ 100 nM
100 to 500 nM	≤ 100 nM	1000 to 10000 nM	Cc1cc(F)c(NC(=O)NC2CC3(COC3)C2)cc1-c1cc(OCCO)nc(-c2ccnc3[nH]ncc23)c1 [Example 101]	1000 to 10000 nM
≤ 100 nM	≤ 100 nM	1000 to 10000 nM	Cc1ncc(NC(=O)NCCC2(C)CC2)cc1-c1ccnc(-c2ccnc(NC(=O)C3CC3)c2)n1 [Example 107]	100 to 500 nM
≤ 100 nM	≤ 100 nM	1000 to 10000 nM	Cc1ncc(NC(=O)NCCC(C)(C)C)cc1-c1cc(-c2ccnc(NC(=O)C3CC3)c2)cnn1 [Example 120]	1000 to 10000 nM
≤ 100 nM	≤ 100 nM		Cc1cc(F)c(NC(=O)NCCC(C)(C)C)cc1-c1cc(N2CCOCC2)nc(N2CCOCC2)c1 [Example 10]	100 to 500 nM

IC50 (B-Raf kinase)	IC50 (B-Raf (V600E) kinase)	IC50 (Miapaca-2 cells)	SMILES	IC50 (WM3928 cells)
≤ 100 nM	≤ 100 nM	1000 to 10000 nM	COC(=O)Nc1cc(-c2nc(OCCO)cc(-c3cc(NC(=O)NC4CC(C)(C)C4)c(F)cc3C)n2)ccn1 [Example 158]	≤ 100 nM
≤ 100 nM	≤ 100 nM		COC(=O)Nc1cc(-c2cc(-c3cc(NC(=O)NCCC(C)(C)F)cnc3C)cc(OCCO)n2)ccn1 [Example 165]	1000 to 10000 nM
≤ 100 nM	≤ 100 nM	1000 to 10000 nM	Cc1cc(F)c(NC(=O)NCC23CC(F)(C2)C3)cc1-c1cc(OCCO)nc(-c2ccnc3[nH]ncc23)c1 [Example 111]	1000 to 10000 nM
100 to 500 nM	≤ 100 nM	1000 to 10000 nM	Cc1cc(F)c(NC(=O)NCCC2(C)COC2)cc1-c1cc(OCCO)nc(-c2ccnc3[nH]ncc23)c1 [Example 110]	1000 to 10000 nM
≤ 100 nM	≤ 100 nM	1000 to 10000 nM	COC1(CCNC(=O)Nc2cc(-c3cccc(-c4cc(NC(=O)C5CC5)ncn4)c3)c(C)cc2F)CC1 [Example 104]	100 to 500 nM
≤ 100 nM	≤ 100 nM		COC(=O)Nc1cc(-c2cc(-c3cc(NC(=O)NC4CC(C)(C)C4)cnc3C)cc(OCCO)n2)ccn1 [Example 156]	100 to 500 nM
≤ 100 nM	≤ 100 nM		COC(=O)Nc1cc(-c2cnnc(-c3cc(NC(=O)N4CCC(CC(F)(F)F)C4)c(F)cc3C)c2)ccn1 (stereo not drawn) [Example 150]	1000 to 10000 nM
≤ 100 nM	≤ 100 nM	1000 to 10000 nM	Cc1cc(F)c(NC(=O)NCCC(C)(C)C)cc1-c1cc(OCCO)nc(C2=CCOCC2)c1 [Example 7]	100 to 500 nM
100 to 500 nM	≤ 100 nM	1000 to 10000 nM	CNC(=O)c1cc(-c2cnnc(-c3cc(NC(=O)NCCC(C)(C)C)c(F)cc3C)c2)ccn1 [Example 119]	1000 to 10000 nM
≤ 100 nM	≤ 100 nM	1000 to 10000 nM	COC(=O)Nc1cc(-c2cc(-c3cc(NC(=O)NCCC4(C)CC4)cnc3C)ccn2)ccn1 [Example 103]	500 to 1000 nM
≤ 100 nM	≤ 100 nM	1000 to 10000 nM	Cc1cc(F)c(NC(=O)NCCC(C)(C)F)cc1-c1cc(OCCO)nc(-c2ccnc3[nH]ccc23)c1 [Example 97]	100 to 500 nM
≤ 100 nM	≤ 100 nM	1000 to 10000 nM	Cc1cc(F)c(NC(=O)NCC(C)C)cc1-c1cc(OCCO)nc(-c2ccnc(NC(=O)C3CC3)c2)c1 [Example 99]	100 to 500 nM
≤ 100 nM	≤ 100 nM	1000 to 10000 nM	Cc1cc(F)c(NC(=O)NCCC(C)(C)F)cc1-c1cccc(-c2ccnc3[nH]ncc23)c1 [Example 100]	500 to 1000 nM
≤ 100 nM	≤ 100 nM	1000 to 10000 nM	Cc1ccc(NC(=O)Nc2cccc(C(F)(F)F)c2)cc1-c1cc(OCCO)nc(N2CCOCC2)c1 [Example 3, 1-(3-(2-(2-hydroxyethoxy)-6-morpholinopyridin-4-yl)-4-methylphenyl)-3-(3-(trifluoromethyl)phenyl)urea]	
≤ 100 nM	≤ 100 nM	1000 to 10000 nM	COC1(CCNC(=O)Nc2cc(-c3ccnc(-c4ccnc(NC(=O)C5CC5)c4)n3)c(C)cc2F)CC1 [Example 117]	
≤ 100 nM	≤ 100 nM	1000 to 10000 nM	COC(=O)Nc1cc(-c2cc(-c3cc(NC(=O)NCCC(C)C)c(F)cc3C)cc(OCCO)n2)ccn1 [Example 115]	≤ 100 nM
